Experimental data from PubChem BioAssay AID248 (DTP/NCI, 2004).
Several values for one entry are separate records, joined by “and”; a condition that tells them apart may be missing. Identical values can stand only once. Inconclusive results and toxic doses are left out. No stated cut-off is given here; in the data, active means T/C of 150% or more; inactive means T/C below 125%.

Tested on: L1210 leukemia ip in BDF1 mice, survival T/C
Assay: NCI In Vivo Anticancer Drug Screen. Data for tumor model L1210 Leukemia (intraperitoneal) in B6D2F1 (BDF1) mice
Details: endpoint: mean survival time, higher = longer survival
Summary of the method: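 In this screen, tumor-bearing mice given compound are compared to those given vehicle, and their survival values are reported as a treated-to-control quotient.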

[1] = dose: 12.5 mg/kg/injection, schedule: Q04DX003 (ip), vehicle: Klucel (hydroxypropylcellulose) (HPC)
[2] = dose: 25.0 mg/kg/injection, schedule: Q04DX003 (ip), vehicle: Klucel (hydroxypropylcellulose) (HPC)
[3] = dose: 100.0 mg/kg/injection, schedule: Q01DX001 (ip), vehicle: saline
[4] = dose: 200.0 mg/kg/injection, schedule: Q01DX001 (ip), vehicle: saline
[5] = dose: 100.0 mg/kg/injection, schedule: Q01DX001 (ip), vehicle: carboxymethylcellulose (CMC)
[6] = dose: 200.0 mg/kg/injection, schedule: Q01DX001 (ip), vehicle: carboxymethylcellulose (CMC)
[7] = dose: 100.0 mg/kg/injection, schedule: Q01DX009 (ip), vehicle: Klucel (hydroxypropylcellulose) (HPC)
[8] = dose: 100.0 mg/kg/injection, schedule: Q04DX003 (ip), vehicle: Klucel (hydroxypropylcellulose) (HPC)
[9] = dose: 200.0 mg/kg/injection, schedule: Q01DX009 (ip), vehicle: Klucel (hydroxypropylcellulose) (HPC)
[10] = dose: 200.0 mg/kg/injection, schedule: Q04DX003 (ip), vehicle: Klucel (hydroxypropylcellulose) (HPC)
[11] = dose: 400.0 mg/kg/injection, schedule: Q01DX009 (ip), vehicle: Klucel (hydroxypropylcellulose) (HPC)
[12] = dose: 400.0 mg/kg/injection, schedule: Q04DX003 (ip), vehicle: Klucel (hydroxypropylcellulose) (HPC)
[13] = dose: 100.0 mg/kg/injection, schedule: Q04DX003 (ip), vehicle: saline with Tween-80
[14] = dose: 200.0 mg/kg/injection, schedule: Q04DX003 (ip), vehicle: saline with Tween-80
[15] = dose: 100.0 mg/kg/injection, schedule: Q04DX003 (ip), vehicle: saline
[16] = dose: 50.0 mg/kg/injection, schedule: Q01DX009 (ip), vehicle: Klucel (hydroxypropylcellulose) (HPC)
[17] = dose: 400.0 mg/kg/injection, schedule: Q04DX003 (ip), vehicle: saline with Tween-80
[18] = dose: 50.0 mg/kg/injection, schedule: Q04DX003 (ip), vehicle: saline
[19] = dose: 100.0 mg/kg/injection, schedule: Q04DX002 (ip), vehicle: Klucel (hydroxypropylcellulose) (HPC)
[20] = dose: 200.0 mg/kg/injection, schedule: Q04DX002 (ip), vehicle: Klucel (hydroxypropylcellulose) (HPC)

Measured: T/C

CCC[CH2][Pb]([CH2]CCC)([CH2]CCC)[n]1ccnc1
inactive: dose: 1.5 mg/kg/injection, schedule: Q01DX009 (ip), vehicle: Klucel (hydroxypropylcellulose) (HPC) 95 % of control | dose: 3.0 mg/kg/injection, schedule: Q01DX009 (ip), vehicle: Klucel (hydroxypropylcellulose) (HPC) 96 % of control | dose: 6.0 mg/kg/injection, schedule: Q01DX009 (ip), vehicle: Klucel (hydroxypropylcellulose) (HPC) 90 % of control | [1] 97 % of control | [2] 97 % of control | dose: 50.0 mg/kg/injection, schedule: Q01DX001 (ip), vehicle: saline 98 % of control | dose: 50.0 mg/kg/injection, schedule: Q04DX003 (ip), vehicle: Klucel (hydroxypropylcellulose) (HPC) 86 % of control | [3] 95 % of control | [4] 93 % of control

O=S1OCC=CCO1
inactive: dose: 50.0 mg/kg/injection, schedule: Q01DX001 (ip), vehicle: carboxymethylcellulose (CMC) 108 % of control | [5] 114 % of control | [6] 105 % of control

CCN(CC)CC(OC(=O)C(c1ccccc1)c1ccccc1)C(COC)OC (stereo not given)
inactive: dose: 55.0 mg/kg/injection, schedule: Q01DX Z (ip), vehicle: saline 109 % of control | dose: 83.0 mg/kg/injection, schedule: Q01DX Z (ip), vehicle: saline 96 % of control | dose: 125.0 mg/kg/injection, schedule: Q01DX Z (ip), vehicle: saline 91 % of control

CC(C)=C(Cl)c1c(C)cc(C)c(CC(N)=O)c1C
inactive: [7] 98 % of control | [8] 93 % of control | [9] 105 % of control | [10] 98 % of control | [11] 96 % of control | [12] 98 % of control

COc1ccccc1C(C(C)C)C(C)C
inactive: [13] 105 % of control | [14] 101 % of control

N#CC(C#N)=C(c1ccccc1)C1CCCCC1
inactive: [3] 92 % of control | [4] 94 % of control | dose: 400.0 mg/kg/injection, schedule: Q01DX001 (ip), vehicle: saline 100 % of control

CC(=O)NCC1CCC(CNC(C)=O)CC1 (stereo not given)
inactive: dose: 100.0 mg/kg/injection, schedule: Q01DX009 (ip), vehicle: saline 103 % of control | [15] 100 % of control | dose: 200.0 mg/kg/injection, schedule: Q01DX009 (ip), vehicle: saline 107 % of control | dose: 200.0 mg/kg/injection, schedule: Q04DX003 (ip), vehicle: saline 105 % of control | dose: 400.0 mg/kg/injection, schedule: Q01DX009 (ip), vehicle: saline 95 % of control | dose: 400.0 mg/kg/injection, schedule: Q04DX003 (ip), vehicle: saline 100 % of control

CC1(C)NC(=O)N(C(C)(C)C(=O)O)C1=O
inactive: [5] 90 % of control | [6] 95 % of control | dose: 400.0 mg/kg/injection, schedule: Q01DX001 (ip), vehicle: carboxymethylcellulose (CMC) 87 % of control

CCOC(=O)c1cnc2c(ccc3ncccc32)c1NCCCN(CC)CC
inactive: [16] 112 % of control

NNC(=S)NCCc1ccccc1
inactive: dose: 25.0 mg/kg/injection, schedule: Q01DX009 (ip), vehicle: Klucel (hydroxypropylcellulose) (HPC) 101 % of control | [16] 105 % of control

ClC1=NC(c2ccc(Cl)cc2)N2C1C2c1ccccc1 (stereo not given)
inactive: [13] 92 % of control | [14] 92 % of control | [17] 94 % of control

CCCCCCCCCCOc1ccc(C=O)c(OC)c1
inactive: [8] 98 % of control | [10] 93 % of control | [12] 91 % of control

CN=NCc1ccccc1
inactive: dose: 90.0 mg/kg/injection, schedule: Q04DX002 (ip), vehicle: saline with Tween-80 106 % of control | dose: 100.0 mg/kg/injection, schedule: Q04DX002 (ip), vehicle: saline with Tween-80 108 % of control and 122 % of control | dose: 133.0 mg/kg/injection, schedule: Q04DX002 (ip), vehicle: saline with Tween-80 120 % of control | dose: 200.0 mg/kg/injection, schedule: Q04DX002 (ip), vehicle: saline with Tween-80 106 % of control and 111 % of control | dose: 300.0 mg/kg/injection, schedule: Q04DX002 (ip), vehicle: saline with Tween-80 117 % of control

COC(=O)c1ccccc1C=O
inactive: dose: 100.0 mg/kg/injection, schedule: Q01DX001 (ip), vehicle: saline with Tween-80 102 % of control | dose: 200.0 mg/kg/injection, schedule: Q01DX001 (ip), vehicle: saline with Tween-80 107 % of control

Cc1c(C)c2c(c(C)c1O)CCC(=O)O2
inactive: [13] 91 % of control | [14] 92 % of control | [17] 94 % of control

CC(C)N=Cc1ccccc1O.CC(C)N=Cc1ccccc1O.[Cu]
inactive: dose: 75.0 mg/kg/injection, schedule: Q01DX001 (ip), vehicle: other 113 % of control

CN1C(=O)CN=C(c2ccccn2)c2cc(Cl)ccc21
inactive: dose: 100.0 mg/kg/injection, schedule: Q01DX001 (ip), vehicle: saline sonified 112 % of control | dose: 200.0 mg/kg/injection, schedule: Q01DX001 (ip), vehicle: saline sonified 96 % of control | dose: 400.0 mg/kg/injection, schedule: Q01DX001 (ip), vehicle: saline sonified 103 % of control

O=[N+]([O-])c1c(Cl)ccc2nsnc12
inactive: [1] 96 % of control | [2] 93 % of control

CCCCCCCCCCCC[N+](CC)(CC)CC(=O)O
inactive: dose: 12.5 mg/kg/injection, schedule: Q01DX009 (ip), vehicle: saline 88 % of control | dose: 25.0 mg/kg/injection, schedule: Q01DX009 (ip), vehicle: saline 97 % of control | dose: 50.0 mg/kg/injection, schedule: Q01DX009 (ip), vehicle: saline 104 % of control | [18] 111 % of control | [3] 93 % of control | [4] 98 % of control

COc1ccc(/C=C(C)/C=N/NC(=O)c2ccncc2)cc1OC
inactive: [13] 98 % of control | [14] 97 % of control | [17] 103 % of control

CC1(C)OC2C(CNCCCl)OC(OCc3ccccc3)C2O1 (stereo not given)
inactive: [18] 96 % of control | [15] 96 % of control

Nc1nc(N)nc(-c2ccncc2)n1
inactive: dose: 50.0 mg/kg/injection, schedule: Q01DX009 (ip), vehicle: saline with Tween-80 119 % of control

ClC(Cl)(Cl)C(c1cccs1)c1cccs1
inactive: [7] 94 % of control | [19] 93 % of control | [9] 94 % of control | [20] 96 % of control | [11] 94 % of control | dose: 400.0 mg/kg/injection, schedule: Q04DX002 (ip), vehicle: Klucel (hydroxypropylcellulose) (HPC) 96 % of control

O=C(NCCCCCCCCCCNC(=O)Nc1cccc(C2=NCCN2)c1)Nc1cccc(C2=NCCN2)c1
inactive: dose: 10.0 mg/kg/injection, schedule: Q01DX Z (ip), vehicle: water 106 % of control | dose: 20.0 mg/kg/injection, schedule: Q01DX Z (ip), vehicle: water 90 % of control

COC1OC(CCl)C(OC(=O)c2ccccc2)C(OC(=O)c2ccccc2)C1OS(=O)(=O)c1ccc(C)cc1 (stereo not given)
inactive: dose: 75.0 mg/kg/injection, schedule: Q04DX002 (ip), vehicle: Klucel (hydroxypropylcellulose) (HPC) 87 % of control | dose: 150.0 mg/kg/injection, schedule: Q04DX002 (ip), vehicle: Klucel (hydroxypropylcellulose) (HPC) 87 % of control | dose: 300.0 mg/kg/injection, schedule: Q04DX002 (ip), vehicle: Klucel (hydroxypropylcellulose) (HPC) 97 % of control

CCCC[S][Pb]([c]1ccccc1)([c]1ccccc1)[c]1ccccc1
inactive: dose: 100.0 mg/kg/injection, schedule: Q01DX001 (ip), vehicle: Klucel (hydroxypropylcellulose) (HPC) 101 % of control | dose: 200.0 mg/kg/injection, schedule: Q01DX001 (ip), vehicle: Klucel (hydroxypropylcellulose) (HPC) 106 % of control

O=C(OCCO)c1cc(OCCO)nc(Cl)n1
inactive: [16] 100 % of control | [7] 100 % of control | [9] 89 % of control

Cc1c(F)cccc1NCC(=O)NN
inactive: [19] 101 % of control | [20] 115 % of control
